{"source": "patent US10918610B2", "about": "“Compounds and methods of promoting myelination” (Case Western Reserve University, priority 2017, dated 2021)", "system": "human cortical spheroids", "experiment": "MYRF+ oligodendrocytes in human cortical spheroids", "format": "cell-based", "conditions": "30 nM from days 61-71, assayed on day 94, versus untreated", "protocol": "Human cortical spheroids were generated as described in Madhavan et al, (Nature Methods, 15:700-706, 2018). In brief, spheroids were left untreated, or treated with Cis-N-cyclohexyl-N-ethyl-3-(3-chloro-4-cyclohexylphenyl)prop-2-enylamine (30 nM) from days 61-71 and assayed […] on day 94 for MyRF+ oligodendrocytes (Rabbit anti-MyRF antibody was generously provided by M. Wegner and used at 1:1000).\nFor patterning of neurocortical spheroids, pluripotent stem cell colonies cultured on vitronectin (Gibco; A14700) were lifted with dispase (Gibco; 17105-041) at 37° C. for 10 min. Intact colonies were transferred to individual low-adherence V-bottom 96-well plates (S-Bio Prime; MS-9096VZ) in 200 μl of spheroid starter media with 10 μM ROCK inhibitor Y-27632 (Calbiochem; 688001), 10 μM dorsopmorphin (Sigma; P5499), and 10 μM SB-431542 (Sigma; S4317). […]\nSpheroids for immunohistochemistry were initially fixed with 4% ice-cold paraformaldehyde for 45 min, washed three times in PBS, and equilibrated with 30% sucrose overnight. […] Two fields from the top and bottom of the spheroid and two fields from the edges of the central region of the spheroids were quantified. […]"}
{"smiles": "CCN(C/C=C\\c1ccc(C2CCCCC2)c(Cl)c1)C1CCCCC1", "note": "[Cis-N-cyclohexyl-N-ethyl-3-(3-chloro-4-cyclohexylphenyl)prop-2-enylamine]", "values": [{"measurement": "MYRF+ oligodendrocytes in human cortical spheroids", "result": "selectively increase MYRF+ oligodendrocytes"}]}
